Paper PMC4734340, “Structural and functional attributes of malaria parasite diadenosine tetraphosphate hydrolase” (Scientific Reports, 2016)

Target: T1, P. falciparum diadenosine tetraphosphate (Ap4A) hydrolase (PfAp4AH) (Plasmodium falciparum, UniProt C0H4F3)
T1 construct: gene PF3D7_0520600; Full length PfAp4AH, recombinant from E. coli, His-tag removed
T1 sequence (C0H4F3 1-152): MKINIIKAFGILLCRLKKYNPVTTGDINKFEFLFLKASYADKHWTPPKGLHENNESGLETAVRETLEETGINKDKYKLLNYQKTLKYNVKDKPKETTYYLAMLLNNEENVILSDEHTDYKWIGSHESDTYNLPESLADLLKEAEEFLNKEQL
Assay: ITC at […] °C (n = […]); also enzyme inhibition IC50 […] and thermal shift (negative ΔTm)
Assay type: binding

Compound: Cc1ccc(C(=O)Nc2ccc(S(=O)(=O)O)c3cc(S(=O)(=O)O)cc(S(=O)(=O)O)c23)cc1NC(=O)c1cccc(NC(=O)Nc2cccc(C(=O)Nc3cc(C(=O)Nc4ccc(S(=O)(=O)O)c5cc(S(=O)(=O)O)cc(S(=O)(=O)O)c45)ccc3C)c2)c1 [suramin]
- Kd: 18.1 ± 1.1 µM
